Reference: patent publication US7989654B2, “High purity bases of 3,3-diphenylpropylamino monoesters” (UCB Pharma GmbH, priority 2003, dated 2011)

Tests used:
[1] = Storage stability of fesoterodine base as oil and in polymer matrices; type: physicochemical; details: storage for 6 months at 5° C.
Procedure: While, for example, the free base of fesoterodine is decomposed as an oil after storage for 6 months at 5° C. to around 3-4%, a drop in concentration cannot be established or only established essentially to a lesser extent when fesoterodine is incorporated in matrices, which contain polar components. [table]

[2] = Stirring of fesoterodine base under distilled water, TLC of the aqueous phase; type: physicochemical; details: covered with distilled water, stirred two days at room temperature
Procedure: Fesoterodine (107.7 mg (R)-2-(3-Diisopropylamino-1-phenylpropyl)-4-hydroxymethylphenyl isobutyric acid ester, B) is covered with a layer distilled water and stirred at room temperature. After two days of stirring, the reaction batch remains unchanged two-phase.

Decomposition during storage as an oil [1]: 3-4%
SMILES: CC(C)C(=O)Oc1ccc(CO)cc1[C@H](CCN(C(C)C)C(C)C)c1ccccc1 [free base of fesoterodine, (R)-2-[3-(1,1-diisopropylamino)-1-phenylpropyl]-4-(hydroxymethyl)phenyl isobutyrate]
Organic material detectable in the aqueous phase by thin layer chromatography [2]: No organic material (B or E) could be detected
